Test results taken from patent US8846330B2, “Methods and kits for the diagnosis of RyR1-related diseases” (The Henry M. Jackson Foundation for the Advancement of …, priority 2008, dated 2014).
“Also recorded” adds a separate entry of the source.

Legend:
lymphocyte cells [1] = experiment: 4CmC-induced adenosine in swine lymphocyte cells, nucleosides assay (Example 4); assay type: cell-based; conditions: for effect of azumolene on 4CmC-induced adenosine: azumolene up to 1 mM (0-1000 μM)
Description: Isolation of lymphocytes from whole blood: Lymphocyte cells were isolated from whole blood by Ficoll-Hypaque density gradient centrifugation technique (see Boyum A., Scand. J. Clip. Lab. 97:77-89 (1968)). Isolated lymphocyte cells were dispensed into 3-volume normal Hanks' balanced salt solution (HBSS) and centrifuged (10 minutes at 1000 RPM). The pellet was re-suspended in HBSS to lyse contaminating erythrocytes and spun. The later step was repeated one more time. To maintain simplicity of the protocol for possible MH diagnostic purposes no further purification was attempted. Lymphocyte cells were then cultured in RPMI-1640 media supplemented with 10% fetal bovine serum, […] penicillin and 2 mM glutamine. Cell cultures were incubated at 37° C. in a humidified chamber with 5% CO2. All experiments were completed within 4 days after isolation of lymphocyte cells from whole blood samples.
Nucleosides Assay Protocol: Briefly, lymphocyte cells (1−2×10^6 cells/test) were suspended in HBSS with or without Ca^2+/Mg^2+ (as indicated for each experiment) plus 0.1% bovine serum albumin (BSA). Experiments were carried out in the presence of the adenosine deaminase inhibitor erythro-9-(2-hydroxy-3-nonyl) adenine-HCl ([…]) to prevent deamination of adenosine to inosine (Lorbar et al., J Mol Cell Cardiol 31: 401-12 (1999)) and incubated at 37° C. for 10 minutes followed by treatment with different 4CmC concentrations (0.05-10 mM). Further incubation at 37° C. for an additional 45 minutes was also carried out. Final volumes of the test tubes were adjusted to 0.2 ml using HBSS buffer. Termination of the cell activity and purification of samples was accomplished by addition of 0.1 ml 12% perchloric acid followed by centrifugation at 5000 RPM for 10 minutes. Aliquots of the supernatant (50 μl) were assayed for adenosine and inosine content using HPLC.
HPLC Conditions: The HPLC system consisted of a Waters Symmetry C18 column (4.6×250 mm) and mobile phase of 94% KH2PO4 (50 mM, pH 4.6) containing 1-heptanesulfonic acid (0.5 mM) and 6% acetonitrile. Under these conditions, retention times for inosine and adenosine were 4 and 7.3 min, respectively. Peak width of inosine and adenosine were 18 and 36 seconds, respectively. Eluting compounds were detected by their absorbance at 254 nm using a Waters photodiode array detector (model 996). Sample adenosine and inosine concentrations were obtained using a calibrated standard curve of concentrations vs. peak area.
Statistics: Sample nucleosides concentrations were normalized to represent per 1 million cells and presented as means±SEM. The t-test was applied to test for differences between agonist-induced nucleosides in lymphocyte cells from MHS and normal swine. A P<0.05 considered to indicate statistical significance.

[2] = tested on: skeletal muscle strips (Vastus lateralis); experiment: caffeine halothane contracture test (CHCT), swine muscle strips
[3] = tested on: biopsied skeletal muscle strips; experiment: caffeine halothane contracture test (CHCT), human muscle strips; conditions: 2 mM caffeine, average of 3 muscle strips
Text: Currently definitive MH diagnosis is made by means of the invasive, surgery-requiring caffeine halothane contracture test (CHCT) in North America, by a similar in vitro contracture test (IVCT) in Europe and by technically very difficult calcium induced calcium release (CICR) in Japan; all these tests use biopsied leg muscle (Vasitis lateralis). Other countries are using tests essentially similar to one or these tests. CHCT has a sensitivity of 97% (accurately detects MH susceptible individuals) with a specificity of only 78% (yields 22% false positives). However, because of the invasive surgery, the costs of the test, and the limited viability of the biopsied skeletal muscle samples, the CHCT must be completed within 5 hours post biopsy. Therefore, the muscle biopsies must be conducted at a certified MH diagnostic center or in close-by hospitals (currently there are only 6 MH diagnostic centers in North America). Because of these procedural and logistic complexities, it is estimated that only about 10% of all individuals eligible to undergo the CHCT test are actually tested (estimated from referrals to the North American Malignant Hyperthermia Hotline).

lymphocyte cells [4] = experiment: 4CmC-induced adenosine in human lymphocyte / immortalized B cells (Example 3); assay type: cell-based
lymphocyte cells [5] = experiment: 4CmC-induced adenosine/inosine in human peripheral blood lymphocytes, HPLC (Example 1); assay type: cell-based; conditions: 4CmC-stimulated lymphocytes
Description: FIG. 2 is a dose-response curve for 4-chloro-m-cresol (4CmC)-induced intracellular adenosine plus inosine in lymphocyte cells from malignant hyperthermia susceptible (MHS, n=11), not-susceptible (MHN, n=9), and normal (n=7) subjects. Lymphocyte cells were treated with 4CmC in the presence of an inhibitor of adenosine deaminase (EHNA, 0.1 mM). After purification, aliquot was analyzed for adenosine and inosine content using HPLC. Adenosine plus inosine values in the absence of 4CmC are plotted against X=0.02 mM to allow logarithmic display of the entire dose response curve. Adenosine plus inosine levels were normalized to reflect per 1 million cells. 4CmC responses at 1, 2, and 5 mM on MHS groups are about 4, 4, and 6 fold higher than the corresponding values in MI-1N or normal groups with values of 6×10^−5, 8×10^−5, and […], respectively. There were no overlaps between the MHS group and the MHN or normal groups.
Lymphocyte cells from MHS (n=11), MHN (n=9) and normal (n=7) subjects were suspended in normal HBSS plus 0.1% BSA and treated with adenosine deaminase inhibitor (EHNA, 0.1 mM). After 10 minutes of incubation at 37° C., cells were treated with HBSS, with and without the RyR1 agonist 4CmC (5 mM) and incubated at 37° C. for an additional 45 minutes. After termination and purification of the samples, aliquots (50 μl) were assayed in duplicate for adenosine and inosine content using HPLC. Concentrations are normalized to per 1 million cells. The sum of the adenosine plus inosine level is about 6-fold higher than corresponding values in normal and MHN cells.
Pilot studies were conducted using blood samples from human subjects in the following groups: Group 1: MHS subjects with positive CHCT and/or having a known MH associated mutation (n=11); Group 2: non-MH susceptible with negative CHCT results (MHN) (n=9), and Group 3: normal subjects who had not undergone CHCT and had no family history of MH (n=7).
Briefly, venous blood samples (20 ml) were drawn from patients using heparinized blood collection tubes. Peripheral blood lymphocyte cells were isolated from whole blood by the Ficoll-Hypaque centrifugation technique. Briefly, diluted anti-coagulated blood is layered over Ficoll-Hypaque and centrifuged. Mononuclear cells consisting of lymphocytes and some monocytes are recovered at the interface. The cells were washed with the Flanks' balanced salt solution (HBSS) buffer, re-suspended in the HBSS buffer, and treated with different concentration of 4CmC at 37° C. in the presence and/or absence of inhibitor of adenosine deaminase erythro-9-(2-hydroxy-3-nonyl)adenine (EHNA) for about 30 minutes. The cells were then purified by adding an equal volume of 6% HClO4 and centrifuged at 6000 rpm for 10 minutes. Aliquots of the supernatant were analyzed for adenosine and inosine content with HPLC using a Waters Separation Module (Model 2695) equipped with Waters Photodiode Array Detector and Empower software.

[6] = muscle strips from normal swine

O=C1CN(/N=C/c2ncc(-c3ccc(Br)cc3)o2)C(=O)N1 [azumolene]
effect of azumolene on 4CmC-induced adenosine (lymphocyte cells [1]; 1 mM 4CmC, normal swine (n=5), Ca2+/Mg2+-free HBSS): only marginally inhibited | effect of azumolene on 4CmC-induced adenosine (lymphocyte cells [1]; 1 mM 4CmC, normal swine (n=5), Ca2+/Mg2+-free HBSS, listed as Azumolene): did not significantly decrease; also recorded: did not significantly affect | Ki (lymphocyte cells [1]; non-linear curve fitting, 1 mM 4CmC, read-out: apparent Ki value of azumolene for inhibition of 4CmC-induced ADO formation): ~5 mM

FC(F)(F)C(Cl)Br (centres unmarked) [Halothane, halothane]
Halothane (3%)-induced contractures, mean ([2]; muscle strips from MHS swine): 19.2±3.1 mN | Halothane (3%)-induced contractures, range ([2]; muscle strips from MHS swine): 11.2-33.1 mN | Halothane (3%)-induced contractures, mean [2, 6]: 1.2±1.0 mN | Halothane (3%)-induced contractures, range [2, 6]: 0-1.8 mN

Cn1c(=O)c2c(ncn2C)n(C)c1=O [Caffeine, caffeine]
Caffeine (2 mM)-induced contractures, range ([2]; muscle strips from MHS swine): 4.7-17.1 mN | Caffeine (2 mM)-induced contractures, mean [2, 6]: 0.4 mN | Caffeine (2 mM)-induced contractures, range [2, 6]: 0-1 mN | CHCT Results Contractures (g) 2 mM Caf ([3]; Table 1, CHCT-negative subjects): 0 g | CHCT Results Contractures (g) 2 mM Caf ([3]; Table 2, MHN subjects): 0 g

N#CC(C#N)=NNc1ccc(OC(F)(F)F)cc1 [FCCP, Carbonyl cyanide 4-(trifluoromethoxy) phenylhydrazone]
ADO level reached with FCCP alone (lymphocyte cells [1]; FCCP 2 and 20 μM, FIG. 14A): 0.1 to 0.12 µM | effect of FCCP on basal adenosine levels (lymphocyte cells [1]; FCCP 2 and 20 μM, FIG. 14A): significantly increased | increase of basal ADO levels by FCCP alone (lymphocyte cells [1]; FCCP 2 and 20 μM, normal swine, Ca2+/Mg2+ free HBSS): 4.5 fold | effect of FCCP on 4CmC-induced ADO formation (lymphocyte cells [1]; both tested FCCP concentrations, 1 mM 4CmC during FCCP treatment (FIG. 14B)): prevented the maximum increase in ADO formation | effectiveness of FCCP in inducing ADO formation relative to 4CmC (lymphocyte cells [1]; normal swine lymphocytes): 25%

C1CCC[C@H]2CCCN3CC[C@@H](CCCCCC[C@@H]4CCCN5CC[C@@H](CC1)O[C@@H]45)O[C@@H]23 [XeC, Xestospongin C]
effect of XeC on 4CmC-induced ADO (lymphocyte cells [1]; 1 μM XeC, 2 mM 4CmC, normal swine): did also not affect | decrease of 4CmC-induced ADO by XeC (lymphocyte cells [1]; 10 μM XeC, 2 mM 4CmC, normal swine (n=5)): 27% | effect of XeC alone on basal ADO levels (lymphocyte cells [1]; XeC 1 and 10 μM, Ca2+/Mg2+-free HBSS): did not affect | effect of XeC on 4CmC (2 mM)-induced adenosine (lymphocyte cells [1]; XeC as printed in figure legend, normal swine): Significantly (P=0.002) Reduced | effect of XeC alone on basal ADO levels (lymphocyte cells [4]; XeC 1 and 10 μM): did not produce any change | effect of XeC on response of B cells to 4CmC (lymphocyte cells [4]; immortalized B cells (MHS, n=3), Ca2+ free HBSS, 2 mM 4CmC): did not affect

CCCCCC[C@@H]([C@@H](C)O)n1cnc2c(N)ncnc21 (racemic) [EHNA, erythro-9(2-hydroxy-3-nonyl)adenine]
EHNA concentration at which inosine formation decreased, matched by equimolar increase in adenosine (lymphocyte cells [5]): ≥ 10 µM | EHNA concentration at which inosine formation decreased and ADO increased to plateau level (lymphocyte cells [1]; swine lymphocytes (n=3)): ≥ 20 µM | inhibition of ADO deaminase by EHNA (lymphocyte cells [4]; immortalized B cells from a CHCT positive (MHS) subject, 4CmC 2 mM, FIG. 4): effectively inhibited
